Laboratory results published in the supplement of paper PMC10307832.

How the values were obtained:
Assay in all cases: relative viability (nuclei count vs DMSO), 5 days (fraction); higher = more cells survive
Afatinib + Trametinib = compound: CN(C)C/C=C/C(=O)Nc1cc2c(Nc3ccc(F)c(Cl)c3)ncnc2cc1O[C@H]1CCOC1 [Afatinib] + CC(=O)Nc1cccc(-n2c(=O)n(C3CC3)c(=O)c3c(Nc4ccc(I)cc4F)n(C)c(=O)c(C)c32)c1 [Trametinib] (partner 0.02 µM)
Outline: (§1)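 Five library-drug doses in √10 steps were combined with a fixed anchor-drug dose, or a single drug was given alone, by pin tool to lung cancer cell lines in 1536-well plates the day after seeding. Nuclei were stained and counted after 5 days. Relative viability is the nuclei count in treated wells over that in vehicle wells, taken as the median of duplicate plates.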

Afatinib + OSI-027 = compound: CN(C)C/C=C/C(=O)Nc1cc2c(Nc3ccc(F)c(Cl)c3)ncnc2cc1O[C@H]1CCOC1 [Afatinib] + COc1cccc2cc(-c3nc([C@H]4CC[C@H](C(=O)O)CC4)n4ncnc(N)c34)[nH]c12 [OSI-027] (partner 0.5 µM)
Outline: as §1

Afatinib + Lapatinib = compound: CN(C)C/C=C/C(=O)Nc1cc2c(Nc3ccc(F)c(Cl)c3)ncnc2cc1O[C@H]1CCOC1 [Afatinib] + CS(=O)(=O)CCNCc1ccc(-c2ccc3ncnc(Nc4ccc(OCc5cccc(F)c5)c(Cl)c4)c3c2)o1 [Lapatinib] (partner 2 µM)
Outline: as §1

Afatinib + Linsitinib = compound: CN(C)C/C=C/C(=O)Nc1cc2c(Nc3ccc(F)c(Cl)c3)ncnc2cc1O[C@H]1CCOC1 [Afatinib] + C[C@]1(O)C[C@@H](c2nc(-c3ccc4ccc(-c5ccccc5)nc4c3)c3c(N)nccn32)C1 [Linsitinib] (partner 1 µM)
Outline: as §1

Cell Line	relative viability (Afatinib + Trametinib; first compound 0.005 µM)	relative viability (Afatinib + Trametinib; first compound 0.01581 µM)	relative viability (Afatinib + Trametinib; first compound 0.05 µM)	relative viability (Afatinib + Trametinib; first compound 0.1581 µM)	relative viability (Afatinib + Trametinib; first compound 0.5 µM)	relative viability (Afatinib + OSI-027; first compound 0.005 µM)	relative viability (Afatinib + OSI-027; first compound 0.01581 µM)	relative viability (Afatinib + OSI-027; first compound 0.05 µM)	relative viability (Afatinib + OSI-027; first compound 0.1581 µM)	relative viability (Afatinib + OSI-027; first compound 0.5 µM)	relative viability (Afatinib + Lapatinib; first compound 0.005 µM)	relative viability (Afatinib + Lapatinib; first compound 0.01581 µM)	relative viability (Afatinib + Lapatinib; first compound 0.05 µM)	relative viability (Afatinib + Lapatinib; first compound 0.1581 µM)	relative viability (Afatinib + Lapatinib; first compound 0.5 µM)	relative viability (Afatinib + Linsitinib; first compound 0.005 µM)	relative viability (Afatinib + Linsitinib; first compound 0.01581 µM)	relative viability (Afatinib + Linsitinib; first compound 0.05 µM)	relative viability (Afatinib + Linsitinib; first compound 0.1581 µM)	relative viability (Afatinib + Linsitinib; first compound 0.5 µM)
201T	0.688	0.709	0.712	0.673	0.673	0.7	0.642	0.722	0.62	0.653	1.07	1.04	0.904	1.01	1.08	1.06	0.986	0.909	0.86	0.897
A549	–	–	–	–	–	–	–	–	–	–	0.974	0.979	1.01	0.893	0.997	0.608	0.435	0.533	0.433	0.467
A-427	0.702	0.686	0.733	0.812	0.633	0.426	0.321	0.446	0.519	0.358	1.09	1.09	1.01	1.03	1.04	1.1	1.15	1.11	1.08	1.07
ABC-1	–	–	–	–	–	0.475	0.315	0.453	0.429	0.405	1.15	1.16	1.32	0.932	1.05	0.851	0.647	0.788	0.466	0.584
BEN	1.01	1.1	1.11	0.948	1.01	0.326	0.283	0.297	0.299	0.298	0.7	0.694	0.832	0.705	0.804	0.988	0.875	1.01	0.895	0.962
CAL-12T	0.278	0.273	0.286	0.247	0.261	0.75	0.456	0.392	0.307	0.374	0.694	0.757	0.714	0.546	0.638	0.732	0.584	0.65	0.409	0.399
COR-L23	0.625	0.648	0.723	0.582	0.608	0.941	0.829	0.755	0.739	0.78	1.22	0.916	0.877	0.933	1.11	0.874	0.894	0.883	0.825	0.848
COR-L 105	0.38	0.315	0.379	0.34	0.352	0.346	0.252	0.265	0.245	0.27	0.311	0.385	0.344	0.31	0.343	0.418	0.207	0.403	0.258	0.278
Calu-6	–	–	–	–	–	–	–	–	–	–	1.15	1.12	1.08	1.09	1.12	0.858	0.876	1.06	0.933	0.891
ChaGo-K-1	0.922	0.911	0.885	0.866	0.813	0.625	0.516	0.515	0.585	0.469	–	–	–	–	–	–	–	–	–	–
EBC-1	–	–	–	–	–	–	–	–	–	–	0.246	0.196	0.198	0.195	0.212	0.72	0.827	0.903	0.783	0.903
EKVX	0.255	0.246	0.216	0.16	0.162	0.565	0.509	0.438	0.149	0.231	0.191	0.18	0.188	0.208	0.198	0.702	0.768	0.421	0.171	0.134
EMC-BAC-2	0.945	0.888	0.823	0.873	0.872	0.371	0.355	0.418	0.378	0.352	0.888	0.858	0.892	0.941	0.91	0.747	0.684	0.697	0.59	0.572
EPLC-272H	0.251	0.265	–	0.229	0.27	0.279	0.203	0.231	0.213	0.211	0.941	0.826	0.941	0.863	0.924	1.14	0.926	0.832	0.776	0.736
H3255	0.297	0.208	0.288	0.195	0.237	0.239	0.231	0.214	0.209	0.208	0.244	0.227	0.242	0.215	0.215	0.197	0.124	0.149	0.123	0.138
HARA	0.417	–	0.38	0.311	0.38	0.365	0.228	0.163	0.234	0.293	0.727	0.668	0.608	0.688	0.888	0.481	0.803	0.238	0.209	0.26
HCC-15	0.338	0.393	0.325	0.35	0.344	0.708	0.753	0.733	0.724	0.547	0.84	0.92	0.859	0.859	0.82	0.845	0.894	0.849	0.854	0.788
HCC-44	1.04	1.09	1.01	1.04	1.12	0.588	0.446	0.521	0.542	0.431	1.09	1.03	0.953	0.97	1.02	0.63	0.659	0.702	0.593	0.669
